The nature of data set [1]: Aqueous solubility (equilibrated 25° C., 24 hours, HPLC). The class given is physicochemical. The note with it: water, thermodynamic from solid. As to the method:
The potassium salt was furthermore submitted to a solubility determination. Aqueous solubility was determined by suspending sufficient compound in water to give a maximum final concentration of ≧100 mg.m1-1 of the parent free-form of the compound. The suspension was equilibrated at 25° C. for 24 hours then the pH was measured. The suspension was then filtered through a glass fibre C filter into a 96 well plate. The filtrate was then diluted by a factor of 101. Quantification was by HPLC with reference to a standard solution of approximately 0.1 mg.ml-1. in DMSO. Different volumes of the standard, diluted and undiluted sample solutions were injected. The solubility was calculated using the peak areas determined by integration of the peak found at the same retention time as the principal peak in the standard injection. Analysis was performed on an Agilent HP1100 series system equipped with a diode array detector and using ChemStation software vB.02.01-SR1.

The next data set deals with Coccidioides spp. Nature of the data set: microbe, parasite or virus in culture. Format: cell-based.
A further data set concerns C. dubliniensis. As to the kind of experiment: Susceptibility of clinical isolates (MIC, broth dilution). The class given is cell-based. The protocol:
(§1) The efficacy of compound IV″ was investigated on 563 clinical isolates of 33 human fungal pathogens. […] For species with n≧10, the MIC90 (MIC, minimal inhibitory concentration) is given as ng/ml. For species with n≦10, the MIC range is given as ng/ml. 24 h and 48 h reads are indicated (Table 1).
(§2) The in vitro efficacy of antifungal compounds is determined in susceptibility assays, which are indicative for the spectrum and potency of a compound. Susceptibilities are reported as minimal inhibitory concentrations (MIC, as ng/ml or μg/ml) required to inhibit growth to a defined degree compared to the drug free control. The MIC90 defines the MIC required to inhibit growth for ≧90% of the strains of a population tested.
(§3) The MIC90 was calculated for the indicated species.
(Dilution methods test growth across graded concentrations, often in twofold steps.)

For another data set, the system named is C. lusitaniae. Described as above. Format: cell-based. As to the method: as §1, §2, §3
The subject of another data set is C. krusei. The description is as above. Format: cell-based. As to the method: as §1, §2, §3
For the next data set, the system named is C. parapsilosis. The description is as above. Format: cell-based. As to the method:
as §1, §2, §3

The test system of a further data set is C. tropicalis. The data set is described as above. Format: cell-based. As to the method: as §1, §2, §3
In a further data set the test system is C. albicans. The data set is described as above. Format: cell-based. As to the method:
as §1, §2, §3

Another data set concerns C. glabrata. Described as above. Format: cell-based. As to the method:
as §1, §2, §3

In data set [2] the test system is Candida albicans. Nature of the data set: In vitro fungicidal activity vs. Candida albicans.
The next data set relates to M. cookie. As to the kind of experiment: In vitro antifungal activity vs. dermatophytes (MIC/MFC). The class given is cell-based. Conditions: M. cookie (n = 1).
In the next data set the test system is M. gypseum. The description is as above. Conditions: M. gypseum (n = 1). The class given is cell-based.
The next data set relates to yeasts. As to the kind of experiment: MFC range over yeasts tested. The class given is cell-based, Candida and Malassezia strains. The note with it: Table 13 strains. The text has this: The fungal isolates tested in this study to evaluate the antifungal activity of (Z)-14-([…]-11,13-diynoic acid, 14-([…]-11,13-diynoic acid, (Z)-14-([…]-11,13-diynoic acid, potassium salt and comparators are clinical isolates collected from patients and deposited at the culture collection of the Center for Medical Mycology. Tested isolates included: Candida albicans, C. glabrata, C. guilliermondii, C. krusei, C. lipolytica, C. lusitaniae, C. parapsilosis, C. tropicalis and Malassezia furfur. Dermatophyte strains included Trichophyton rubrum, T. mentagrophytes, T. tonsurans, T. terrestre, Epidermophyton floccosum, Microsporum canis, M. cookie, M. gallinae, M. gypseum, and M. vanbreuseghemii. […] The plates were then streaked with an inoculating loop to remove the cells from the drug source.

For the next data set, the system named is T. terrestre. Nature of the data set: In vitro antifungal activity vs. dermatophytes (MIC/MFC). Format: cell-based. The note with it: T. terrestre (n = 1).
For data set [3], the system named is Candida albicans. As to the kind of experiment: Mouse vaginal infection, topical dosing. The class given is in vivo. The note with it: mice; topically 0.01% daily for five days. The protocol: The efficacy of compound III″ in vaginal infections of small mammals has been shown. Mice were vaginally infected with Candida albicans. Compound III″ was administered topically at 0.01% daily for five days. Fungal burden decreased 86% compared to the untreated control (see FIG. 14 showing vaginal fungal burden as determined by colony forming units (CFU) from vaginal lavage fluid).

The next data set deals with C. albicans spores. As to the kind of experiment: Effect on the germination of C. albicans (MTT). The class given is cell-based. The note with it: drug added after 3 hours.
In another data set the test system is M. gallinae. Nature of the data set: In vitro antifungal activity vs. dermatophytes (MIC/MFC). The class given is cell-based. The note with it: M. gallinae (n = 1).
The next data set deals with T. mentagrophytes. The data set is described as above. The note with it: T. mentagrophytes (n = 15). The class given is cell-based.

One may read the solubility as the dissolved amount per volume that the medium holds. A word on the MIC50: it is an inhibitory concentration at the 50% level, which refers to growth in some studies and to a panel of isolates in others. Usually MIC stands for the lowest concentration that inhibits growth of the organism. Read a high MIC as a less susceptible organism. By MFC is commonly meant the lowest tested concentration that kills the fungus rather than only halting it. Read a high MFC as less potent killing.

In brackets after ≈: the same amount, converted by molar mass. Read-outs that look alike come from different tables or passages of the source.

In turn, `O=C([O-])CCCCCCC/C=C\C#CC#Cc1ccco1.[K+]` [Compound IV″, potassium (Z)-14-(furan-2-yl)tetradeca-9-en-11,13-diynoate] came in with a solubility at 24 h in data set [1] above 96.5 mg/mL. For the same molecule, the “MIC90/MIC range 48 h” value was 30 ng/mL with Coccidioides spp. (Coccidioides spp. (n = 30), MIC90); 2.5 ng/mL with C. dubliniensis (C. dubliniensis (n = 25), MIC90, 48 h); 128 ng/mL against C. lusitaniae (C. lusitaniae (n = 24), MIC90, 48 h); 20 ng/mL in the data set with C. krusei (C. krusei (n = 27), MIC90, 48 h); 1024 ng/mL against C. parapsilosis (C. parapsilosis (n = 37), MIC90, 48 h); 5 ng/mL in the data set on C. tropicalis (C. tropicalis (n = 35), MIC90, 48 h). Besides, the “MIC90/MIC range 48 h” value in the data set with C. albicans (C. albicans (n = 20), MIC90, 48 h) came out at 2.5 ng/mL; in the data set on C. glabrata (C. glabrata (n = 25), MIC90, 48 h), 20 ng/mL. The MIC90 came out at 30 ng/mL against Coccidioides spp. (Coccidioides, 48 h); 2.5 ng/mL with C. dubliniensis (Candida dubliniensis, 24 h); 128 ng/mL in the data set on C. lusitaniae (Clavispora lusitaniae, 24 h); 20 ng/mL in the data set on C. krusei (Pichia kudriavzevii, 24 h); 1020 ng/mL in the data set with C. parapsilosis (Lodderomyces parapsilosis, 24 h); 5 ng/mL in the data set with C. tropicalis (Candida tropicalis, 24 h). In addition, the MIC90 in the data set on C. albicans (Candida albicans, 24 h) is 2.5 ng/mL; with C. glabrata (Nakaseomyces glabratus, 24 h), 20 ng/mL. Besides, in the data set on C. parapsilosis (Lodderomyces parapsilosis, 24 h, read-out: calculated MIC50), the MIC50 was 128 ng/mL.
On to `O=C(O)CCCCCCC/C=C\C#CC#Cc1ccco1` [Compound III″], for which the “Fungicidal Concentration” value with Candida albicans [2] (Candida albicans) is 0.4 ng/mL. Besides, the MIC90 stood at 0.4 ng/mL (≈ 1.41 nM) in the data set on Candida albicans [2] (Candida albicans, 24 h, read-out: MIC90 24 h) and 0.4 ng/mL (≈ 1.41 nM) in the data set on Candida albicans [2] (Candida albicans, 48 h, read-out: MIC90 48 h). The same molecule gave a remaining organisms in the data set on Candida albicans [2] (growth-negative samples after 24 hr incubation, subcultured) below 5 cfu/ml. Besides, the MIC against M. cookie (96 h, 35° C., 4 days) is 1000 ng/mL (≈ 3520 nM); in the data set on M. gypseum (Nannizzia gypsea, 96 h, 35° C., 4 days), below 0.06 ng/mL; against T. terrestre (96 h, 35° C., 4 days) it was below 0.06 ng/mL; in the data set on M. gallinae (96 h, 35° C., 4 days), below 0.06 ng/mL; in the data set on T. mentagrophytes (Trichophyton mentagrophytes, 96 h, 35° C., 4 days) it was below 0.06 ng/mL. For the same molecule, the minimal fungicidal concentration (MFC) is 2000 ng/mL (≈ 7030 nM) in the data set on M. cookie; 16000 ng/mL (≈ 56300 nM) against M. gypseum (Nannizzia gypsea); 16000 ng/mL (≈ 56300 nM) against T. terrestre; 4000 ng/mL (≈ 14100 nM) against M. gallinae; 0.1 ng/mL (≈ 0.352 nM) against T. mentagrophytes (Trichophyton mentagrophytes). Further, the “MIC90/MIC range 48 h” value is 1000 ng/mL (≈ 3520 nM) in the data set with M. cookie (48 h); below 0.06 ng/mL in the data set with M. gypseum (48 h); below 0.06 ng/mL with T. terrestre (48 h); below 0.06 ng/mL against M. gallinae (48 h); below 0.06 ng/mL with T. mentagrophytes (MIC90, 48 h). Further, the “MFC range against yeasts” value with yeasts was below 0.06 to 32000 ng/mL. Moreover, in the data set on Candida albicans [3], the “decrease of vaginal fungal burden (CFU, lavage fluid)” value is reported as 86%. The “growth of spores germinated in the absence of drug” value in the data set on C. albicans spores was “effectively inhibited the subsequent growth of spores”.
